Measured values: US10131652B2, “Pyrimidinyloxy benzene derivatives as herbicides” (E. I. DU PONT DE NEMOURS AND COMPANY, priority 2014, dated 2018)

Experiments:
Type in all cases: in vivo
[1] = test system: pigweed (Amaranthus retroflexus); assay: Test B pre-/postemergence plant response
In short: (§1)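 Seeds in loam–sand blend given preemergence soil spray; separately, plants at one- to two-leaf stage (2–10 cm) sprayed postemergence, compounds in non-phytotoxic solvent with surfactant. Injury rated visually versus untreated controls after ~10 days in greenhouse, 0 (no effect) to 100 (complete control).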

[2] = test system: corn (Zea mays); assay: Test B pre-/postemergence plant response
In short: as §1

[3] = test system: barnyardgrass (Echinochloa crus-galli); assay: Test B pre-/postemergence plant response
In short: as §1

[4] = test system: giant foxtail (Setaria faberii); assay: Test B pre-/postemergence plant response
In short: as §1

[5] = test system: wheat (Triticum aestivum); assay: Test B pre-/postemergence plant response
In short: as §1

[6] = test system: pigweed (Amaranthus retroflexus); assay: Test D pre-/postemergence plant response; settings: Postemergence; for Plant response rating, Pigweed: scale 0 to 100, 0 no effect, 100 complete control
In short: (§2)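 Seeds sown in loam–sand blend got preemergence sprays of test chemicals in a non-phytotoxic solvent with surfactant; postemergence sprays went on plants at 1- to 4-leaf stage (2 to 18 cm) in peat/vermiculite medium. After 13 to 15 days in greenhouse, visual injury versus controls scored 0 (no effect) to 100 (complete control).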

[7] = test system: waterhemp (common waterhemp, Amaranthus rudis); assay: Test D pre-/postemergence plant response; settings: Postemergence; for Plant response rating, Waterhemp: scale 0 to 100, 0 no effect, 100 complete control
In short: as §2

[8] = test system: galium (catchweed bedstraw, Galium aparine); assay: Test D pre-/postemergence plant response; settings: Postemergence; for Plant response rating, Galium: scale 0 to 100, 0 no effect, 100 complete control
In short: as §2

[9] = test system: corn (Zea mays); assay: Test D pre-/postemergence plant response; settings: Postemergence; for Corn plant response rating: scale 0 to 100 (0 no effect, 100 complete control); for Plant response rating, Corn: scale 0 to 100, 0 no effect, 100 complete control
In short: as §2

[10] = test system: lambsquarters (Chenopodium album); assay: Test D pre-/postemergence plant response; settings: Postemergence; for Plant response rating, Lambsquarters: scale 0 to 100, 0 no effect, 100 complete control
In short: as §2

[11] = test system: barnyardgrass (Echinochloa crus-galli); assay: Test D pre-/postemergence plant response; settings: Postemergence; for Barnyardgrass plant response rating: scale 0 to 100 (0 no effect, 100 complete control); for Plant response rating, Barnyardgrass: scale 0 to 100, 0 no effect, 100 complete control
In short: as §2

[12] = test system: Italian ryegrass (Lolium multiflorum); assay: Test D pre-/postemergence plant response; settings: Postemergence; for Plant response rating, Ryegrass, Italian: scale 0 to 100, 0 no effect, 100 complete control
In short: as §2

[13] = test system: morningglory (Ipomoea coccinea); assay: Test D pre-/postemergence plant response; settings: Postemergence; for Plant response rating, Morningglory: scale 0 to 100, 0 no effect, 100 complete control
In short: as §2

[14] = test system: ragweed (common ragweed, Ambrosia elatior); assay: Test D pre-/postemergence plant response; settings: Postemergence; for Plant response rating, Ragweed: scale 0 to 100, 0 no effect, 100 complete control
In short: as §2

[15] = test system: giant foxtail (Setaria faberii); assay: Test D pre-/postemergence plant response; settings: Postemergence; for Foxtail, Giant plant response rating: scale 0 to 100 (0 no effect, 100 complete control); for Plant response rating, Foxtail, Giant: scale 0 to 100, 0 no effect, 100 complete control
In short: as §2

[16] = test system: blackgrass (Alopecurus myosuroides); assay: Test D pre-/postemergence plant response; settings: Postemergence; for Blackgrass plant response rating: scale 0 to 100 (0 no effect, 100 complete control); for Plant response rating, Blackgrass: scale 0 to 100, 0 no effect, 100 complete control
In short: as §2

[17] = 31 g ai/ha, Preemergence, 0 to 100 scale where 0 is no effect and 100 is complete control
[18] = 125 g ai/ha, postemergence, 0 to 100 scale, 0 no effect, 100 complete control
[19] = Postemergence, 31 g ai/ha, 0 to 100 scale (0 no effect, 100 complete control)
[20] = Preemergence, 125 g ai/ha, 0 to 100 scale (0 no effect, 100 complete control)
[21] = 31 g ai/ha, scale 0 to 100 (0 no effect, 100 complete control)

Structure (SMILES): FC(F)(Br)c1cc(-c2ccccc2Oc2ncc(Cl)cn2)no1 [Compound 162]
- Plant response rating, Pigweed [1, 17]: 80
- Plant response rating, Pigweed [1, 18]: 100
- Plant response rating, Pigweed [1, 19]: 100
- Pigweed plant response rating [1, 20]: 100
- Plant response rating, Corn [2, 18]: 40
- Plant response rating, Corn [2, 19]: 20
- Plant response rating, Barnyardgrass [3, 17]: 20
- Plant response rating, Barnyardgrass [3, 18]: 90
- Plant response rating, Barnyardgrass [3, 19]: 10
- Barnyardgrass plant response rating [3, 20]: 100
- Plant response rating, Foxtail, Giant [4, 17]: 90
- Plant response rating, Foxtail, Giant [4, 18]: 90
- Plant response rating, Foxtail, Giant [4, 19]: 10
- Foxtail, Giant plant response rating [4, 20]: 100
- Plant response rating, Wheat [5, 18]: 30
- Plant response rating, Wheat [5, 19]: 20
- Pigweed plant response rating [6, 21]: 90
- Plant response rating, Pigweed ([6]; 62 g ai/ha): 100
- Plant response rating, Pigweed ([6]; 125 g ai/ha): 100
- Waterhemp plant response rating [7, 21]: 98
- Plant response rating, Waterhemp ([7]; 62 g ai/ha): 100
- Plant response rating, Waterhemp ([7]; 125 g ai/ha): 100
- Galium plant response rating [8, 21]: 60
- Plant response rating, Galium ([8]; 62 g ai/ha): 60
- Plant response rating, Galium ([8]; 125 g ai/ha): 80
- Corn plant response rating ([9]; 16 g ai/ha): 5
- Corn plant response rating ([9]; 31 g ai/ha): 5
- Plant response rating, Corn ([9]; 62 g ai/ha): 5
- Plant response rating, Corn ([9]; 125 g ai/ha): 5
- Lambsquarters plant response rating [10, 21]: 65
- Plant response rating, Lambsquarters ([10]; 62 g ai/ha): 75
- Plant response rating, Lambsquarters ([10]; 125 g ai/ha): 95
- Barnyardgrass plant response rating ([11]; 16 g ai/ha): 5
- Barnyardgrass plant response rating ([11]; 31 g ai/ha): 10
- Plant response rating, Barnyardgrass ([11]; 62 g ai/ha): 15
- Plant response rating, Barnyardgrass ([11]; 125 g ai/ha): 15
- Ryegrass, Italian plant response rating [12, 21]: 0
- Plant response rating, Ryegrass, Italian ([12]; 62 g ai/ha): 5
- Plant response rating, Ryegrass, Italian ([12]; 125 g ai/ha): 5
- Morningglory plant response rating [13, 21]: 65
- Plant response rating, Morningglory ([13]; 62 g ai/ha): 75
- Plant response rating, Morningglory ([13]; 125 g ai/ha): 75
- Ragweed plant response rating [14, 21]: 30
- Plant response rating, Ragweed ([14]; 62 g ai/ha): 40
- Plant response rating, Ragweed ([14]; 125 g ai/ha): 50
- Foxtail, Giant plant response rating ([15]; 16 g ai/ha): 10
- Foxtail, Giant plant response rating ([15]; 31 g ai/ha): 10
- Plant response rating, Foxtail, Giant ([15]; 62 g ai/ha): 10
- Plant response rating, Foxtail, Giant ([15]; 125 g ai/ha): 20
- Blackgrass plant response rating ([16]; 16 g ai/ha): 0
- Blackgrass plant response rating ([16]; 31 g ai/ha): 30
- Plant response rating, Blackgrass ([16]; 62 g ai/ha): 30
- Plant response rating, Blackgrass ([16]; 125 g ai/ha): 45
